Where “and” joins values, the source holds several entries; their conditions need not be identical. Identical values can stand only once.
Assays:
B. subtilis YhdA = system: B. subtilis YhdA; set-up: method as in PMID 16752898; settings: cited from earlier work
WrbA protein of E. coli = system: WrbA protein of E. coli; set-up: method as in PMID 9694845; settings: cited from earlier work
apoFerBHis6 = apoFerBHis6 (Paracoccus denitrificans, UniProt A1B9E3); assay: Fluorescence titration of free flavin by apoenzyme (dissociation constants); assay type: binding; settings: for Kd: 25 mM Tris-HCl, pH 7.4, 25 °C, read-out: Kd of apoFerBHis6-flavin complex
Description: Dissociation constants of apoenzyme-flavin complexes were determined from fluorescence titration with excitation at 450 nm by adding of constant amount of the wild-type and mutant variants of apoFerBHis6 into 25 mM Tris-HCl buffer (pH 7.4) with 100 nM FMN or riboflavin. Decreasing emission intensities at 519 nm were recorded on Luminescence Spectrotometer LS-50B (Perkin-Elmer). Series of different concentrations of FMN standard was used for setting of a calibration curve on fluorescence intensity. The dissociation constants Kd were calculated according to [22] and converted to the binding Gibbs energy changes ΔGb = -RTln (1/Kd) (where R, gas constant, T, absolute temperature), from which the variation of Gibbs energy due to mutation (ΔΔGb) was computed as the difference in binding energy between mutant and wild-type enzyme (ΔΔGb = ΔGb(mut) - ΔGb(wt)).

[1] = system: EmoB of Mesorhizobium sp. bacterium BNC1; settings: cited from earlier work
FerB = assay: Activity toward external FMN, wild-type enzyme; assay type: biochemical, Paracoccus denitrificans
Description: (§1) The kinetic parameters ± standard error were determined by fitting the data to the appropriate kinetic equation using nonlinear regression and the program Microcal Origin (version 5.0).

[2] = set-up: method as in PMID 17029888; settings: aqueous solutions; cited from earlier work
[3] = Standard redox potential by xanthine/xanthine oxidase method of Massey with reference dye; assay type: physicochemical; settings: 50 µM free FMN, pH 7.0
FerBHis6 = assay: Stopped-flow reduction of enzyme-bound flavin cofactor by NADH; assay type: biochemical, Paracoccus denitrificans
Description: Stopped-flow spectrophotometry was performed on a SFM-3000 (Bio-Logic) stopped-flow system equipped with a 0.8- × 0.8-mm cuvette (FC-08). The temperature was kept constant at 10 °C with a thermostating water bath. Six measurements were averaged for each sample. […] Results from the stopped-flow experiments were analyzed in the Bio-Kine software (BioLogic).

FerBHis6-R95A = molecular target: T1, FerBHis6-R95A (Paracoccus denitrificans, UniProt A1B9E3, R95A); assay: NADH:flavin oxidoreductase initial-velocity kinetics of R95A mutant; assay type: biochemical
T1 sequence (A1B9E3 1-182 R95A): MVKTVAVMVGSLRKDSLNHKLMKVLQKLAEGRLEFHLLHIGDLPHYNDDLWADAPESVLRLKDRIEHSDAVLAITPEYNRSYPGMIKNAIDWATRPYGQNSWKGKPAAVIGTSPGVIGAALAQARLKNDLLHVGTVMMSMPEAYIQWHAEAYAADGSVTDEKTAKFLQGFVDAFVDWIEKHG
Description: as §1
(§2) Measurements were performed at 30 °C with 61 nM enzyme in 25 mM Tris-HCl buffer (pH 7.4).

[4] = cited from earlier work
[5] = FMN self-association in aqueous solution by 1H NMR chemical shift (literature); assay type: physicochemical; settings: order of magnitude, from association constant of ref 46
[6] = molecular target: FerB (ferric reductase B, NAD(P)H:acceptor oxidoreductase) of Paracoccus denitrificans with a C-terminal six-histidine tag (Paracoccus denitrificans) (UniProt P84469); assay: SAXS; […] protein, 290.15 K, buffer of the last purification step; dimer to tetramer; volume fractions by OLIGOMER
[7] = molecular target: FerB (ferric reductase B, NAD(P)H:acceptor oxidoreductase) of Paracoccus denitrificans with a C-terminal six-histidine tag (Paracoccus denitrificans) (UniProt P84469); assay: SEC; Superose 12, 0.1 mL of 0.5 mg/mL protein, 25 mM Tris-HCl pH 7.4, 0.5 mL/min, calibrated with marker proteins; holoenzyme
[8] = molecular target: FerB (ferric reductase B, NAD(P)H:acceptor oxidoreductase) of Paracoccus denitrificans with a C-terminal six-histidine tag (Paracoccus denitrificans) (UniProt P84469); assay: SAXS; 5.0 mg/mL protein, 290.15 K, buffer of the last purification step; dimer to tetramer; volume fractions by OLIGOMER
[9] = molecular target: FerB (ferric reductase B, NAD(P)H:acceptor oxidoreductase) of Paracoccus denitrificans with a C-terminal six-histidine tag (Paracoccus denitrificans) (UniProt P84469); assay: SAXS; 1.25 mg/mL protein, 290.15 K, buffer of the last purification step; dimer to tetramer; volume fractions by OLIGOMER
[10] = molecular target: FerBHis6 wild-type and mutant variants; assay: Steady-state kinetics of NADH oxidation with UQ-0 as acceptor (quinone reductase activity); assay type: biochemical, Paracoccus denitrificans; settings: UQ-0 100 µM, pH 7.4, 30 °C
Description: as §1

[11] = system: Cc1cc2nc3c(=O)[nH]c(=O)nc-3n(C[C@H](O)[C@H](O)[C@H](O)COP(=O)(O)O)c2cc1C; assay: purified protein, by the assay type; assay type: biochemical, Paracoccus denitrificans; settings: other: NADH as donor
Description: as §1, §2

[12] = system: Cc1cc2nc3c(=O)[nH]c(=O)nc-3n(C[C@H](O)[C@H](O)[C@H](O)CO)c2cc1C; assay: purified protein, by the assay type; assay type: biochemical, Paracoccus denitrificans; settings: other: NADH as donor; pH 7.4; 30.0 °C
Description: as §1, §2

[13] = system: Cc1cc2nc3c(=O)[nH]c(=O)nc-3n(C[C@H](O)[C@H](O)[C@H](O)COP(=O)(O)OP(=O)(O)OC[C@H]3O[C@@H](n4cnc5c(N)ncnc54)[C@H](O)[C@@H]3O)c2cc1C; assay: purified protein, by the assay type; assay type: biochemical, Paracoccus denitrificans; settings: other: NADH as donor; pH 7.4; 30.0 °C
Description: as §1, §2

In the case of `Cc1cc2nc3c(=O)[nH]c(=O)nc-3n(C[C@H](O)[C@H](O)[C@H](O)COP(=O)(O)O)c2cc1C` [FMN, flavin mononucleotide], the “kcat of FMN reduction” value (B. subtilis YhdA) is listed as 60 to 70 s⁻¹, the Kd (WrbA protein of E. coli) is listed as 2 µM and the Kd (apoFerBHis6) is listed as 0.027 ± 0.002 µM. The “Gibbs binding energy coming from the phosphate” value (apoFerBHis6; calculated from Kd values of FMN and riboflavin) was -3.25 kcal/mol, the “total Gibbs binding energy” value (apoFerBHis6; calculated from experimental Kd) was -10.3 kcal/mol and the “kcat of FMN reduction” value ([1]; calculated from Vmax using subunit mass 21 412 Da) was 397 s⁻¹. For the same compound, the Vmax [1] was 1111 µmol/min/mg, the “ratio of kcat toward external FMN to kcat toward UQ-0” value (FerB) was “about 0.006” and the self-association constant [2] was 20 to 100 M⁻¹. For the same compound, the “E° ´ of free flavin” value [3] was −212 mV, the “kinetic solvent isotope effect kobs(H2O)/kobs(D2O)” value (FerBHis6; 99% deuterium oxide, buffer pH 6.8) was 1.9 and the “kcat (catalytic constant) of flavin reduction” value (FerBHis6-R95A; NADH as donor, 30 °C, 25 mM Tris-HCl pH 7.4) was 50 s⁻¹. The “ratio of kcat toward external FMN to kcat toward UQ-0” value (FerBHis6-R95A; R95A mutation) was 0.32, the “E° ´ published value” ([4]; free FMN) was −207 mV and the “expected dissociation constant of self-association” value [5] was about 10 mM.
In the case of `NC(=O)C1=CN([C@@H]2O[C@H](COP(=O)(O)OP(=O)(O)OC[C@H]3O[C@@H](n4cnc5c(N)ncnc54)[C@H](O)[C@@H]3O)[C@@H](O)[C@H]2O)C=CC1` [NADH], the “NADH concentration giving half maximal effect on kobs” value (FerBHis6; 30 µM FerBHis6, 1–5000 µM NADH, 10 °C, anaerobic) is reported as 6.4 ± 1.0 µM, the “pH dependence of kobs” value (FerBHis6; 5 mM NADH, pH interval 3–9) is reported as “did not depend on pH” and the “limit of kobs (apparent electron-transfer rate constant for FerB-NADH complex)” value (FerBHis6; 10 °C, anaerobic) is reported as 147.0 ± 0.4 s⁻¹ and ~140 s⁻¹. For the same compound, the “Michaelis constant for NADH” value (FerBHis6-R95A; FMN as acceptor, bisubstrate ping-pong fit) was 33 ± 7 µM.
For `Cc1cc2nc3c(=O)[nH]c(=O)nc-3n(C[C@H](O)[C@H](O)[C@H](O)CO)c2cc1C` [riboflavin], the Kd (apoFerBHis6) was 6.58 µM and 6.6 µM and the “increase in Kd relative to FMN” value (apoFerBHis6; riboflavin vs FMN) was 244 fold.
For `O=C1/C(=C2\Nc3ccc(S(=O)(=O)[O-])cc3C2=O)Nc2ccc(S(=O)(=O)[O-])cc21.[Na+].[Na+]` [indigo carmine], the “E° ´ of reference dye” value [4] is listed as −125 mV.
For `Nc1ccc2nc3ccc(N)cc3[n+](-c3ccccc3)c2c1.[Cl-]` [phenosafranin], the “E° ´ of reference dye” value [4] is given as −252 mV.
In the case of “FerB (ferric reductase B, NAD(P)H:acceptor oxidoreductase) of Paracoccus denitrificans with a C-terminal six-histidine tag (from UniProt P84469 1-27) (enzyme)”, the partial volume fraction of dimer [6] is reported as 13%, the partial volume fraction of tetramer [6] is reported as 87% and the stoichiometry N [7] is reported as 1.88 subunits. It also gave a partial volume fraction of dimer [8] of 9%, a partial volume fraction of tetramer [8] of 91% and a partial volume fraction of dimer [9] of 34%. The partial volume fraction of tetramer [9] was 66%.
For `[2H][C@H]1C=CN(C2OC(COP(=O)(O)OP(=O)(O)OCC3OC(n4cnc5c(N)ncnc54)C(O)C3O)C(O)C2O)C=C1C(N)=O` (stereo partly drawn) [[4S-^2H]NADH], the “kinetic isotope effect for enzyme-catalyzed UQ-0 reduction” value [10] was 5.45±0.21.
Compound “FerBHis6-R95A (Paracoccus denitrificans PD1222; R95A)” has a kcat ([11]; 30 °C, 25 mM Tris-HCl pH 7.4) of 50 ± 5 s⁻¹, a Km ([11]; pH 7.4, 30.0 °C) of 111 ± 15 µM and a Km [12] of 59 ± 12 µM. For the same compound, the kcat [12] was 75 ± 10 s⁻¹, the Km [13] was 95 ± 7 µM and the kcat [13] was 38 ± 1 s⁻¹.
With `COC1=C(OC)C(=O)C(C)=CC1=O` [UQ-0, 2,3-dimethoxy-5-methyl-1,4-bezoquinone] the “time to complete oxidation of dithionite pre-reduced flavin cofactor” value (FerBHis6; 200 µM UQ-0, within stopped-flow dead time, all proteins) was at most 0.4 ms.
For `[2H]C1C=CN(C2OC(COP(=O)(O)OP(=O)(O)OCC3OC(n4cnc5c(N)ncnc54)C(O)C3O)C(O)C2O)C=C1C(N)=O` (centres unmarked) [deuterated NADH], the “kinetic isotope effect for enzyme-catalyzed UQ-0 reduction” value [10] was “about 6”.
For `O=C1c2ccccc2C(=O)c2cc(S(=O)(=O)O)ccc21` [anthraquinone-2-sulfonate], the “E° ´ of reference dye” value [4] is given as −225 mV.
With `[2H][C@@H]1C=CN(C2OC(COP(=O)(O)OP(=O)(O)OCC3OC(n4cnc5c(N)ncnc54)C(O)C3O)C(O)C2O)C=C1C(N)=O` (stereo partly drawn) [[4R-^2H]NADH] the “kinetic isotope effect for enzyme-catalyzed UQ-0 reduction” value [10] was 1.07±0.13.

Source: paper PMC4015959, “The Structural and Functional Basis of Catalysis Mediated by NAD(P)H:acceptor Oxidoreductase (FerB) of Paracoccus denitrificans” (PLoS ONE, 2014)
